For 35 molecules, EC50 results are on record in patent US12358921B2, “Antiviral heterocyclic compounds” (priority 2022, dated 2025).

Format in all cases: cell-based
Assay [1] concerns HUMAN RSV-A (“LONG” STRAIN). In words: RSV-A assay (CPE, ATPlite) in Hep-2 cells. The conditions noted are these: human respiratory syncytial virus, 120 h, MOI 0.1, 5-day incubation. Summed up:
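Protection from RSV cytopathic effect read by ATP luminescence (ATPlite) after 5-day culture. Genotype A "Long" virus added at MOI 0.1 to Hep-2 monolayers at 8,000 cells/well, pre-dosed with duplicate 2-fold compound dilutions; controls include infected untreated and uninfected wells. EC50 values binned into ranges.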

Assay [2] relates to hMPV A2 TN/94-49. In words: HMPV antiviral assay Method 1 (LLC-MK2 cells, ATP-Lite). The conditions noted are these: hMPV A2 TN/94-49, LLC-MK2 cells. Summed up: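 LLC-MK2 cells infected in suspension with hMPV A2 TN/94-49 at MOI 0.005, 5,000 cells/well, in serum-free OptiMEM with 2 μg/mL TPCK-trypsin (final) and CaCl2; compounds in duplicate, 10 points, 2 μM top, 2.5-fold dilutions. After 7 days at 37 °C, cell health by ATP-Lite luminescence; EC50 by four-parameter fit.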

For assay [3], the system named is hMPV A2 TN/94-49. Briefly: HMPV antiviral assay Method 2 (LLC-MK2 cells with CP-100-356, ATP-Lite). The conditions noted are these: hMPV A2 TN/94-49, LLC-MK2 cells, 4 μM CP-100-356, Method 2. Summed up:
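The protective effect was measured after 7 days at 37 °C by ATP-Lite luminescence and expressed as % cell health relative to virus-only and cells-only wells, with EC50 from a four-parameter logistic. Cells were LLC-MK2 infected with strain A2 TN/94-49 (MOI 0.16) with final 2 μM CP-100-356 and 2 μg/mL TPCK-trypsin; 10 duplicate concentrations from 200 nM, 2.5-fold steps.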

One may read the EC50 as the concentration needed to bring the measured effect to its halfway point. The low end stands for a more potent agent, the high end for a less potent agent. As for `COc1cc(C(=O)NC[C@@](O)(c2cccc(F)c2)c2cc3c(c(-c4cc(C(F)(F)F)c(F)cc4F)n2)OC[C@]3(C)C(N)=O)cc2cn(C3(F)CC3)nc12` [Example 296], the results for the EC50 in assay [1], in assay [2] and in assay [3] were below 200 nM, below 500 nM and below 200 nM, respectively.

`COc1cc(C(=O)NC[C@](O)(c2cc3c(c(-c4ccc(F)c(Cl)c4Cl)n2)OC[C@]3(C)C(N)=O)C(F)(F)F)cc2cn(C3CC3)nc12` [Example 65]: the EC50 in assay [1] is below 200 nM; in assay [2], below 500 nM; in assay [3], below 200 nM.

Regarding `COc1cc(C(=O)NC[C@@](O)(c2cccc(F)c2)c2cc3c(c(-c4ccc(F)c(Cl)c4Cl)n2)OC[C@]3(C)C(N)=O)cc2cn(C3CC3)nc12` [Example 268], the figures for the EC50 in assay [1], in assay [2] and in assay [3] were below 200 nM, below 500 nM and below 200 nM, respectively.

As for `COc1cc(C(=O)NC[C@@](O)(c2ccc(F)cc2)c2cc3c(c(-c4ccc(F)c(Cl)c4Cl)n2)OC[C@]3(C)C(N)=O)cc2cn(C3CC3)nc12` [Example 41], the concentration for a half-maximal effect (EC50) in assay [1] was below 200 nM; in assay [2], below 500 nM; in assay [3], below 200 nM.

On to `COc1cc(C(=O)NC[C@@](O)(c2cccc(F)c2)c2cc3c(c(-c4ccc(F)c(Cl)c4Cl)n2)OC[C@]3(C)C(N)=O)cc2oc(C3CC3)nc12` [Example 280], for which the EC50 in assay [1] is below 200 nM; in assay [2], below 500 nM; in assay [3], below 200 nM.

Take `COc1cc(C(=O)NC[C@](O)(c2cc3c(c(-c4ccc(F)c(C)c4Cl)n2)OC[C@]3(C)C(N)=O)C2CC2)cc2cn(C3CC3)nc12` [Example 69]: the figures for the EC50 in assay [1], in assay [2] and in assay [3] were below 200 nM, below 500 nM and below 200 nM, respectively.

For the molecule `COc1cc(C(=O)NCC(O)(c2cc3c(c(-c4cc(Cl)c(F)cc4F)n2)OC[C@]3(C)C(N)=O)c2cc(C(F)F)cs2)cc2cn(C3CC3)nc12` (stereo partly shown) [Example 468], the figures for the EC50 in assay [1], in assay [2] and in assay [3] were below 200 nM, above 500 nM and below 200 nM, respectively.

As for `COc1cc(C(=O)NC[C@@](O)(c2cccc(F)c2)c2cc3c(c(-c4cc(Cl)c(F)cc4F)n2)OC[C@]3(C)C(N)=O)cc2cn(C3CC3)nc12` [Example 132], the concentration for a half-maximal effect (EC50) in assay [1] was below 200 nM; in assay [2], below 500 nM; in assay [3] it was below 200 nM.

As to `COc1ccc([C@](O)(CNC(=O)c2cc(OC)c3nn(C4CC4)cc3c2)c2cc3c(c(-c4cc(Cl)c(F)cc4F)n2)OC[C@]3(C)C(N)=O)cc1` [Example 165], the EC50 is below 200 nM in assay [1], below 500 nM in assay [2] and below 200 nM in assay [3].

`[2H]C([2H])([2H])c1nc2c(OC)cc(C(=O)NC[C@@](O)(c3ccccc3)c3cc4c(c(-c5cc(Cl)c(F)cc5F)n3)OC[C@]4(C)C(N)=O)cc2s1` [Example 155]: the EC50 is below 200 nM in assay [1] and below 500 nM in assay [2].

Turning to `COc1cc(C(=O)NC[C@@](O)(c2ccc(F)cc2)c2cc3c(c(-c4ccc(F)c(Cl)c4Cl)n2)OC[C@]3(C)C(N)=O)cc2cc(C3CC3)nn12` [Example 45], the 50% effective concentration (EC50) is below 200 nM in assay [1] and below 500 nM in assay [2].

`COc1cc(C(=O)NC[C@@](O)(c2ccccc2)c2cc3c(c(-c4cc(Cl)c(F)cc4F)n2)OC[C@]3(C)C(N)=O)cc2oc(C3CC3)nc12` [Example 85]: the 50% effective concentration (EC50) was below 500 nM in assay [2] and below 200 nM in assay [3].

Take `COc1cc(C(=O)NC[C@@](O)(c2ccc(F)cc2)c2cc3c(c(-c4cc(Cl)c(F)cc4F)n2)OC[C@]3(C)C(N)=O)cc2cc(C3CC3)nn12` [Example 15]: the values for the half-maximal effective concentration (EC50) in assay [1] and in assay [2] were below 200 nM and below 500 nM, respectively.

For `[2H]C([2H])([2H])c1cc2cc(C(=O)NC[C@](O)(c3cc4c(c(-c5cc(F)c(F)cc5F)n3)OC[C@]4(C)C(N)=O)C3CC3)cc(OC)c2nc1C([2H])([2H])[2H]` [Example 28], the figures for the half-maximal effective concentration (EC50) in assay [1] and in assay [2] were below 200 nM and below 500 nM, respectively.

Regarding `COc1cc(C(=O)NC[C@@](O)(c2ccccc2)c2cc3c(c(-c4ccc5c(c4Cl)OC(F)(F)O5)n2)OC[C@]3(C)C(N)=O)cc2cn(C3(F)CC3)nc12` [Example 255], the EC50 in assay [1] is below 200 nM; in assay [2], below 500 nM.

Take `[2H]C([2H])([2H])c1nc2c(OC)cc(C(=O)NC[C@@](O)(c3ccc(OC)cc3)c3cc4c(c(-c5cc(Cl)c(F)cc5F)n3)OC[C@]4(C)C(N)=O)cc2s1` [Example 168]: the EC50 in assay [1] was below 200 nM; in assay [2], below 500 nM.

In the case of `COc1cc(C(=O)NC[C@@](O)(c2ccccc2)c2cc3c(c(-c4cc(C(F)(F)F)ccc4F)n2)OC[C@]3(C)C(N)=O)cc2cn(C(F)F)nc12` [Example 148], the values for the EC50 in assay [1] and in assay [2] were below 200 nM and below 500 nM, respectively.

On to `[2H]c1nc2c(OC)cc(C(=O)NC[C@](O)(c3cc4c(c(-c5cc(F)c(F)cc5F)n3)OC[C@]4(C)C(N)=O)C3CC3)cc2cc1Br` [Example 30], for which the EC50 in assay [1] was below 200 nM; in assay [2], below 500 nM.

Regarding `C[C@]1(C(N)=O)COc2c1cc([C@@](O)(CNC(=O)c1cc(OC(F)F)c3nn(C4CC4)cc3c1)C1CC1)nc2-c1ccc(F)c(F)c1Cl` [Example 39], the EC50 is below 200 nM in assay [1] and below 500 nM in assay [2].

In the case of `[2H]C([2H])([2H])c1nc2c(OC)cc(C(=O)NC[C@@](O)(c3cccc(OC)c3)c3cc4c(c(-c5cc(Cl)c(F)cc5F)n3)OC[C@]4(C)C(N)=O)cc2s1` [Example 163], the EC50 was below 200 nM in assay [1] and below 500 nM in assay [2].

Take `[2H]C([2H])([2H])c1nc2c(OC)cc(C(=O)NC[C@@](O)(c3ccc(F)cc3)c3cc4c(c(-c5ccc6c(c5Cl)OC(F)(F)O6)n3)OC[C@]4(C)C(N)=O)cc2s1` [Example 27]: the EC50 in assay [1] is below 200 nM; in assay [2], below 500 nM.

Turning to `COc1cc(C(=O)NC[C@@](O)(c2ccccc2)c2cc3c(c(-c4cc(C(F)(F)F)ccc4F)n2)OC[C@]3(C)C(N)=O)cc2cc(C3CC3)nn12` [Example 149], the concentration giving a half-maximal response (EC50) in assay [1] is below 200 nM; in assay [2], below 500 nM.

Turning to `COc1cccc([C@](O)(CNC(=O)c2cc(OC)c3nc(C)c(Cl)cc3c2)c2cc3c(c(-c4cc(Cl)c(F)cc4F)n2)OC[C@]3(C)C(N)=O)c1` [Example 164], the EC50 in assay [1] was below 200 nM; in assay [2], below 500 nM.

Regarding `[2H]C([2H])([2H])c1nc2c(OC)cc(C(=O)NC[C@@](O)(c3ccc(F)cc3)c3cc4c(c(-c5cc(Cl)c(F)cc5F)n3)OC[C@]4(C)C(N)=O)cc2s1` [Example 16], the EC50 is below 200 nM in assay [1] and below 500 nM in assay [2].

For the molecule `C[C@]1(C(N)=O)COc2c1cc([C@@](O)(CNC(=O)c1ccc3nc(N)sc3c1)c1ccccc1)nc2-c1ccc2c(c1Cl)OC(F)(F)O2` [Example 256], the EC50 was below 200 nM in assay [1] and below 500 nM in assay [2].

Consider `[2H]C([2H])([2H])c1nc2c(OC)cc(C(=O)NC[C@@](O)(c3ccccc3)c3cc4c(c(-c5ccc(F)c(Cl)c5Cl)n3)OC[C@]4(C)C(N)=O)cc2s1` [Example 273], for which the EC50 in assay [1] was below 200 nM; in assay [2], below 500 nM.

On to `COc1cc(C(=O)NC[C@](O)(c2cc3c(c(-c4ccc(Cl)c(Cl)c4Cl)n2)OC[C@]3(C)C(N)=O)C2CC2)cc2cn(C3CC3)nc12` [Example 60], for which the EC50 was below 200 nM in assay [1] and below 500 nM in assay [2].

As for `C[C@]1(C(N)=O)COc2c1cc([C@@](O)(CNC(=O)c1cc(OC(F)F)c3nn(C4CC4)cc3c1)C1CC1)nc2-c1ccc(F)c(Cl)c1F` [Example 40], the half-maximal effective concentration (EC50) is below 200 nM in assay [1] and below 500 nM in assay [2].

With `[2H]C([2H])([2H])c1nc2c(OC)cc(C(=O)NC[C@@](O)(c3ccsc3)c3cc4c(c(-c5cc(Cl)c(F)cc5F)n3)OC[C@]4(C)C(N)=O)cc2s1` [Example 176], the concentration for a half-maximal effect (EC50) was below 200 nM in assay [1] and below 500 nM in assay [2].

As to `COc1cc(C(=O)NC[C@@](O)(c2ccc(F)cc2)c2cc3c(c(-c4ccc(F)c(Cl)c4Cl)n2)OC[C@]3(C)C(N)=O)cc2cn(C(F)F)nc12` [Example 42], the 50% effective concentration (EC50) in assay [1] is below 200 nM; in assay [2], below 500 nM.

`COc1cc(C(=O)NC[C@@](O)(c2ccsc2)c2cc3c(c(-c4cc(Cl)c(F)cc4F)n2)OC[C@]3(C)C(N)=O)cc2cn(C(F)F)nc12` [Example 174]: the values for the EC50 in assay [1] and in assay [2] were below 200 nM and below 500 nM, respectively.

Turning to `[2H]c1c([2H])c([2H])c([C@](O)(CNC(=O)c2cc(OC)c3nn(C4CC4)cc3c2)c2cc3c(c(-c4cc(Cl)c(F)cc4F)n2)OC[C@]3(C)C(N)=O)c([2H])c1[2H]` [Example 169], the concentration for a half-maximal effect (EC50) in assay [1] is below 200 nM; in assay [2], below 500 nM.

With `C[C@]1(C(N)=O)COc2c1cc([C@@](O)(CNC(=O)c1cc(OC3CC3)c3nn(C4CC4)cc3c1)C1CC1)nc2-c1cc(Cl)c(F)cc1F` [Example 2], the EC50 in assay [1] is below 200 nM; in assay [2] it was below 500 nM.

Take `COc1cc(C(=O)NC[C@](O)(c2cc3c(c(-c4ccc5ccsc5c4)n2)OC[C@]3(C)C(N)=O)C2CC2)cc2cn(C3CC3)nc12` [Example 48]: the values for the half-maximal effective concentration (EC50) in assay [1] and in assay [2] were below 200 nM and above 500 nM, respectively.

Regarding `COc1cc(C(=O)NC[C@](O)(c2cc3c(c(-c4cc(F)c(F)cc4F)n2)OC[C@]3(C)C(N)=O)C2CC2)cc2cc(C(F)(F)F)cnc12` [Example 46], the concentration for a half-maximal effect (EC50) was below 200 nM in assay [1] and above 500 nM in assay [2].
